The values that follow come from PMC7904827 (Scientific Reports, 2021).

Data set [1] deals with neonatal ventricular cardiomyocytes (NVCMs). Nature of the data set: In vitro cardioprotection bioassay against daunorubicin toxicity (LDH release). Format: cell-based, rat. Conditions: 3 h preincubation, DAU 1.2 µM, LDH release after 48 h. The procedure: NVCMs were isolated in-house from 1- to 3-day-old Wistar rats as described previously. The use of animals and experimental protocols were approved by Charles University, Faculty of Pharmacy Animal Welfare Committee. All experiments were performed in accordance with Directive 2010/63/EU on the Protection of Animals Used for Scientific Purposes and in compliance with Animal Research: Reporting of In Vivo Experiments (ARRIVE) guidelines. Newly isolated cardiomyocytes were left for 40 h to form a monolayer of spontaneously beating cardiomyocytes in seeding medium (DMEM/F12 supplemented with 10% HS, 5% FBS, 4% PYR and 1% P/S), which was then replaced with culture medium (DMEM/F12 supplemented with 5% FBS, 4% PYR and 1% P/S). The medium was replaced again after 24 h for new culture medium.
(§1) After 3 h, DAU solution (1.2 µM) was added to the media. After another 3 h, the medium was replaced with new (drug-free) exposure medium, and the cardiomyocytes were then kept until the end of the experiment. In addition to cytoprotective properties, the toxicity of the studied agent was also examined; this experiment was performed as described above with only the DAU addition step omitted.
(§2) Forty-five hours after the last medium exchange, a sample of medium was taken from each well to assess lactate dehydrogenase (LDH) activity[27]–[29]. For details, see the Supplementary material.
(§3) 1.5 LDH activity evaluation
(§4) The control wells were treated with lysis buffer (0.1 M potassium phosphate, 1% Triton
(§5) X-100, 1 mM DTT, 2 mM EDTA; pH 7.8; 15 min; room temperature) to measure the total
(§6) cellular LDH level (sum of the activity in the control medium and the lysate). The activity of
(§7) LDH was assayed in Tris-HCl buffer (pH 8.9) containing 35 mM sodium lactate and 5 mM
(§8) NAD+. The rate of NAD+ reduction was monitored spectrophotometrically at 340 nm for 2 min.
(§9) The slope of the linear region and molar absorption coefficient e = 6.22*10 3 M/cm were used
(§10) to calculate the LDH activity, and the data were expressed as a percentage of total L DH activity. […]
(In general: LDH in the medium is a marker of cell lysis.)

Data set [2] can be described thus: Approximate solubility in distilled water at room temperature. Format: physicochemical. As to conditions: distilled water, room temperature. The procedure:
The syntheses of the target prodrugs were performed according to a known three-step procedure with some modifications. Target prodrugs GK-667, GK-678 and GK-691 were obtained in 34%, 37% and 17% overall yields, respectively. […] The resulting solutions remained physically stable for at least two hours at room temperature.

The test system of data set [3] is neonatal ventricular cardiomyocytes (NVCMs). Kind of data set: Toxicity of the prodrugs alone in NVCMs (LDH release). Format: cell-based, rat. Also on record: key to LDH release, statistical significance compared to control: c - compared to control; P ≤ 0.01. Conditions: prodrug alone 1–100 µM, NVCMs; n.s. or c in Fig. S2. The method, then: as §1, §2, §3, §4, §5, §6, §7, §8, §9, §10

Data set [4] in a line: ICRF-193 release from the prodrugs during incubation in DMEM (thermomixer, UHPLC-MS/MS). Format: in vitro ADME. Conditions: 100 µM, 37 °C. The method, then: All samples were spiked with the internal standards. DMEM or buffer (100 μL) was diluted with an ice-cold methanol/water mixture (20:80, v/v), mixed and analyzed. Plasma (50 μL) was precipitated with ice-cold methanol (1:5, v/v), mixed (20 s) and centrifuged (10 min, 10,000 rpm, 4 °C). NVCM pellets (4.8 × 10^6 cells) were precipitated with ice-cold methanol (250 μL), mixed (20 s), sonicated in a cold ultrasonic bath (75 s), mixed (30 s) and centrifuged (10 min, 10,000 rpm, 4 °C). The supernatants from the plasma and NVCM extractions were filtered (0.22 μm, PVDF) prior to analysis. For assay of the prodrugs, the samples were acidified with formic acid to a final concentration of 0.5%.
The samples were analyzed using two UHPLC instruments both coupled to a triple quadrupole mass spectrometer. […] Positive ionization mode was used in both methods. The analytical columns tested are characterized in the Supplementary materials.
The prodrugs (100 μM) were incubated (37 °C) in DMEM in a thermomixer (Thermomixer Comfort, Eppendorf, Germany) under gentle mixing (350 rpm) for 48 h.
From all of the above described experiments, samples were taken at predefined intervals, treated and immediately analyzed. All experiments were performed in four replicates, and the results are expressed as the mean ± SD.

On the set-up of data set [5]: method as in PMID 29273587. Conditions: ADR-925 formed in vivo from DEX, rabbit; cited from earlier work.

Structures can show the parent of a compound that is named as a salt.

Take `C[C@H]([C@H](C)N1CC(=O)N(COC(=O)[C@@H](N)Cc2ccccc2)C(=O)C1)N1CC(=O)N(COC(=O)[C@@H](N)Cc2ccccc2)C(=O)C1` [GK-691, meso-2,3-bis(4-((S)-2-amino-3-phenylpropionyloxymethyl)-3,5-dioxopiperazin-1-yl)butane tetrahydrochloride]: the “lowest concentration with significant protection against DAU-induced toxicity” value in data set [1] is reported as 3 µM. For the same compound, the solubility (in general, how much of the substance goes into solution per volume) in data set [2] is about 10 mg/mL. Also, the “LDH release, statistical significance compared to control” value in data set [3] is on record as “c”.
For `C[C@H](N)C(=O)OCN1C(=O)CN([C@H](C)[C@H](C)N2CC(=O)N(COC(=O)[C@H](C)N)C(=O)C2)CC1=O` [GK-678, meso-2,3-bis(4-((S)-2-aminopropionyloxymethyl)-3,5-dioxopiperazin-1-yl)butane tetrahydrochloride], the “lowest concentration with significant protection against DAU-induced toxicity” value in data set [1] came out at 3 µM. The “prodrug degradation in DMEM” value in data set [4] is “fastest degradation”. Also, in data set [4] (GK-667 compared with GK-678), the “AUC0–3 h of ICRF-193 concentrations” value is on record as “no statistically significant differences”. The compound also displayed a solubility in data set [2] of about 20 mg/mL. Further, the “LDH release, statistical significance compared to control” value in data set [3] is listed as “n.s”.
Take `C[C@@H](CN(CC(N)=O)CC(=O)O)N(CC(N)=O)CC(=O)O` [ADR-925]: the half-life of elimination in data set [5] was 2.9 h.
